This is an account of results in patent US20140179523A1, “HERBICIDAL COMPOSITIONS COMPRISING 4-AMINO-3-CHLORO-6-(4-CHLORO-2-FLUORO-3-METHOXYPHENYL) PYRIDINE-2-CARBOXYLIC ACID OR A DERIVATIVE THEREOF AND FLUFENACET” (DOW AGROSCIENCES LLC, priority 2012, published 2014).

For the assay, the system named is field violet (Viola arvensis, VIOAR). Kind of assay: Field trials, post-emergence application in winter wheat, % biomass control visually rated. It is filed as in vivo. An excerpt: The materials were applied early post-emergence. % BIOMASS CONTROL was visually rated.

In the case of `COC(=O)c1nc(-c2ccc(Cl)c(OC)c2F)cc(N)c1Cl` [Cmpd 1, methyl 4-amino-3-chloro-6-(4-chloro-2-fluoro-3-methoxyphenyl)-pyridine-2-carboxylate], for the setting “Cmpd 1 7.5 g ae/ha”, the “% BIOMASS CONTROL 39 DAA Obs” value amounted to 13.33d %, the “% BIOMASS CONTROL 181 DAA Obs” value came out at 23.33f % and the “% BIOMASS CONTROL 225 DAA Obs” value turned out to be 18.33f %.
Consider `CC(C)N(C(=O)COc1nnc(C(F)(F)F)s1)c1ccc(F)cc1` [Flufenacet, N-(4-fluorophenyl)-N-(1-methylethyl)-2-[[5-(trifluoromethyl)-1,3,4-thiadiazol-2-yl]oxy]acetamide], for which, under “flufenacet 240 g ai/ha”, the “% BIOMASS CONTROL 39 DAA Obs” value is listed as 10.00d %, the “% BIOMASS CONTROL 181 DAA Obs” value is 15.00g % and the “% BIOMASS CONTROL 225 DAA Obs” value amounted to 10.00g %.
